Reference: publication PMC6158327, “Negative Allosteric Modulators of mGlu7 Receptor as Putative Antipsychotic Drugs” (Frontiers in Molecular Neuroscience, 2018)

How the values were obtained:
[1] = target: T1, Cytochrome P450 2B6 (Homo sapiens, UniProt P20813); assay: Cytochrome P450 inhibition, 2B6; format: in vitro ADME
T1 sequence (P20813 1-491): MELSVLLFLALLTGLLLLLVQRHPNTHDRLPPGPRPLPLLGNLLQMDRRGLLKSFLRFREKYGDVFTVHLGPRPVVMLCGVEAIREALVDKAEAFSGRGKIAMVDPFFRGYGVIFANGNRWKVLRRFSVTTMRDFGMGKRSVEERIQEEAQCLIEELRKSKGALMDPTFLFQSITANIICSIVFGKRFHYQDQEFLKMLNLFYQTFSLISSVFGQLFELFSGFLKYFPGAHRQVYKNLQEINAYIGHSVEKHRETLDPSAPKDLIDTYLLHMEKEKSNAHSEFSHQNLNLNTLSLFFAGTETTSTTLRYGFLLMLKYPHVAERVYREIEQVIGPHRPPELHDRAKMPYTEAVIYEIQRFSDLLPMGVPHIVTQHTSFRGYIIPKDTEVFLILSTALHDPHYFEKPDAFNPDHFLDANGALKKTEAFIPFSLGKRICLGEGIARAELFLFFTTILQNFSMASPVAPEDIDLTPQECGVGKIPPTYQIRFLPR

[2] = tested on: MK-801-induced social interaction deficits; assay: Social interaction test (MK-801-induced deficits); format: in vivo, Albino Swiss mice; conditions: 30 min before MK-801 (0.3 mg/kg), mice
Procedure: The method was adapted from [de Moura Linck et al., 2008] and [Woźniak et al., 2016b]. After the 2-day habituation trial (10 min/day) a pair of mice was placed in the open field for 5 min. The social interactions between two mice were determined based on the total time spent participating in social behavior such as genital investigation, sniffing, chasing, and fighting each other. The total number of social episodes was also measured. The test was video-recorded and viewed by a trained observer.

[3] = tested on: MK-801-induced deficits in the NOR test; assay: Novel object recognition test (MK-801-induced deficits); format: in vivo, Albino Swiss mice; conditions: 30 min before MK-801 (0.3 mg/kg), mice
Procedure: The experiment was performed according to [Nilsson et al., 2007] with minor modifications ([Woźniak et al., 2016b]). Following a 2-day habituation period (10 min/day), a training trial was performed, where mice were allowed to explore two identical objects for 5 min. About 1 h later, a test trial was conducted, where one of the familiar object was replaced by a novel object. The animals were then allowed to explore the objects for 5 min. […] Time spend exploring (i.e., sniffing or touching) the familiar (Tfamiliar) or novel object (Tnovel) was measured by a trained observer and then the recognition index was calculated for each mouse [(Tnovel - Tfamiliar)/(Tfamiliar + Tnovel)] × 100.

[4] = target: Cytochrome P450 3A4 (Homo sapiens, UniProt P08684); assay: Cytochrome P450 inhibition, 3A4; format: in vitro ADME
[5] = tested on: amphetamine-induced hyperactivity; set-up: method as in Kalinichev et al., 2013; conditions: 100 and 150 mg/kg, subcutaneous; ref Kalinichev et al., 2013; cited from earlier work
[6] = tested on: MK-801-induced increase in immobility time; assay: Modified forced swim test after chronic MK-801; format: in vivo, Albino Swiss mice; conditions: chronic (13 days) MK-801 0.4 mg/kg, mice
Procedure: The modified forced swim test was performed according to the method introduced by Noda ([Noda et al., 1995], [1997]; [Wierońska et al., 2015a]; [Woźniak et al., 2016a]). The swim tests were performed in a glass cylinder (height, 20 cm; internal diameter, 15 cm) containing 11 cm of water maintained at 23–24°C. After the acclimation period, the animals underwent the first swim test, where the immobility time was measured during a 3 min period (T1). On the next day, chronic (13 days) MK-801 administration (0.4 mg/kg, i.p.) was started. After a 1-day break, on the 15th day of experiment, the second swim session was performed and the immobility time during 3-min test was measured again (T2). The T2 - T1 difference was reported as the result of the experiment.

[7] = tested on: MK-801-induced disruption in spatial delayed alternation; assay: Spatial delayed alternation test (T-maze); format: in vivo, Wistar rats; conditions: 10 mg/kg, 30 min prior to MK-801 (0.1 mg/kg), rats
Procedure: The spatial delayed alternation test was performed using a wooden T-maze, according to [Sławińska et al., 2013] and [Wierońska et al., 2015b].
During the adaptation phase, lasting 3 days, the animals were allowed to freely explore the maze for 10 min. For the next 2 days, rats were confined to either of the two end-arms and allowed to drink a 10 % sucrose solution there for 10 min twice daily. On the following day, a 2-week training phase was started. The animals performed one training session per day, which consisted of one forced trial (i.e., one of the end-arms was closed) followed by ten free choice trials. During the free choice trial the animal was placed in the starting arm and after the guillotine door was raised, it was allowed to choose to enter one of the end-arms. After the response, the rat was placed back to the starting arm, where it stayed for 10 s. If the chosen end-arm was the opposite to the previously visited one, a correct response was scored, and the animal was closed in the compartment where it was allowed to drink the sucrose solution for 5 s. After an incorrect response, the animal was gently returned to the starting arm. The training phase was carried out until the animals scored 7 correct responses in a training session in 2 consecutive days.
The test was started 30 min after the MK-801 injection.

Chain of Cytochrome P450 3A4 (P08684 whole entry): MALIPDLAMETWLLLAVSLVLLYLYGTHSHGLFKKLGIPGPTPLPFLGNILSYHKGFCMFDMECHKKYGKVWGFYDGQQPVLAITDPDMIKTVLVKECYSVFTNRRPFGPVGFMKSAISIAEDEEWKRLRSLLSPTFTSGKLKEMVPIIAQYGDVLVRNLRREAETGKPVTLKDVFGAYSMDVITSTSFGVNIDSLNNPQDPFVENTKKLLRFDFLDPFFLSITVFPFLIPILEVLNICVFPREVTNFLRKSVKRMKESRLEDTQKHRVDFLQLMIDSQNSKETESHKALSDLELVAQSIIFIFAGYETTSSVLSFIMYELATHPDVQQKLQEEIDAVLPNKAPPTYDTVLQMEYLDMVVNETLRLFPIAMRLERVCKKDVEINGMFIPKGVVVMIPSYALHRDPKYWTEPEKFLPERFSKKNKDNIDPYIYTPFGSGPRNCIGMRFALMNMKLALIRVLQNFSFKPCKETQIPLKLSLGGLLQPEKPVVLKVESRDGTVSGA

## CCc1nc2c(o1)CC(c1ccc(C)cc1C)CC2=O (stereo not shown) [ADX71743, 6-(2,4-Dimethylphenyl)-2-ethyl-6,7-dihydro-4(5H)-benzoxazolone]
[1]
  IC50: > 10 µM
[2]; 5 mg/kg i.p.
  Effect on MK-801-induced reduction of duration of social interaction: reversed the effect of MK-801
  Effect on MK-801-induced reduction of number of social episodes: reversed the effect of MK-801
[2]; 15 mg/kg i.p.
  Effect on MK-801-induced reduction of duration of social interaction: reversed the effect of MK-801
  Effect on MK-801-induced reduction of number of social episodes: reversed the effect of MK-801
[3]; 1 mg/kg i.p.
  Effect on MK-801-induced reduction of recognition index (NOR): significant reversal of MK-801-induced effect
[3]; 5 mg/kg i.p.
  Effect on MK-801-induced reduction of recognition index (NOR): significant reversal of MK-801-induced effect
[3]; 15 mg/kg i.p.
  Effect on MK-801-induced reduction of recognition index (NOR): significant reversal of MK-801-induced effect
[4]
  IC50: > 10 µM
[5]
  Activity in amphetamine-induced hyperactivity: active

## COc1ccc(-c2cc3onc(-c4ccncc4)c3c(=O)n2C)cc1 [MMPIP, 6-(4-Methoxyphenyl)-5-methyl-3-(4-pyridinyl)-isoxazolo(4,5-c)pyridin-4(5H)-one]
[1]
  IC50: > 10 µM
[2]; 5, 10, and 20 mg/kg i.p.
  Effect on MK-801-induced reduction of number of social episodes: no effect
  Effect on MK-801-induced reduction of time of interaction: no effect
[6]; 1 mg/kg i.p. acutely 30 min before T2
  Effect on MK-801-induced increase in immobility time (modified forced swim test): significant reversal of MK-801-induced effect
[6]; 15 mg/kg i.p. acutely 30 min before T2
  Effect on MK-801-induced increase in immobility time (modified forced swim test): significant reversal of MK-801-induced effect
[7]
  Effect on MK-801-induced reduction of choice accuracy (spatial delayed alternation): rescued the MK-801–induced cognitive impairments
